This assay concerns IGF1R-Sal tumors. Nature of the assay: IGF-1R Sal Tumor Model. Type of assay: in vivo, nude mice. The settings on record: Mus musculus, 96 h, oral, 4 consecutive days, read-out: IGF-1R Sal % TGI; for inhibition in vivo at 25 mg/kg: 25 mpk, bid; for inhibition in vivo at 50 mg/kg: 50 mpk.

SMILES strings stand for the structures.

Description: A salivary gland adenocarcinoma that developed spontaneously in a transgenic mouse (MCI-19) was excised and cut into fragments of about 20 mg. Tumor fragments were implanted s.c. into the ventral thoracic region of a group of six female, athymic BALB/c nu/nu mice (Harley Sprague-Dawley, Indianapolis, Ind.), using a 13-gauge trocar. Once established, the salivary gland-derived tumor line was designated IGF 1R-Sal and was propagated as a tumor xenograft in nude mice. Tumors were passaged every 2 weeks, at which time the tumor reached f500 to 1,000 mm3 in size. […] Compounds were administered either on a bid schedule (oral doses 8 hours apart) or on a once a day schedule orally (qd) for 4 consecutive days. Tumors were measured at the start and end of treatment. Activity was measured as % tumor growth inhibition (% TGI). The % TGI was determined using the following formula (Ct−Tt)/(Ct−Co) where Ct is defined as the median tumor size of the control group at the end of treatment, Co is defined as the median tumor size of the control group at the start of treatment, and Tt is defined as the median tumor size of the treated group at the end of treatment.

Consider `O=C(Nc1ccc(F)nc1)[C@@H]1C[C@@H](O)CN1c1nc(Nc2cc(C3CC3)[nH]n2)c2cccn2n1` [Example 217, (2S,4R)-1-(4-(5-cyclopropyl-1H-pyrazol-3-ylamino)pyrrolo[1,2-f][1,2,4]triazin-2-yl)-N-(6-fluoropyridin-3-yl)-4-hydroxypyrrolidine-2-carboxamide], for which the inhibition in vivo at 25 mg/kg is 0%. On to `CNC(=O)[C@@H]1CCCN1c1nc(Nc2cc(C3CC3)[nH]n2)c2cccn2n1` [Example 3, (S)-1-(4-(5-cyclopropyl-1H-pyrazol-3-ylamino)pyrrolo[1,2-f][1,2,4]triazin-2-yl)-N-methylpyrrolidine-2-carboxamide], for which the inhibition in vivo at 6.25 mg/kg (6.25 mpk, qd) was determined as 80%.

Turning to `O=C(Nc1cnccn1)[C@@H]1C[C@@H](F)CN1c1nc(Nc2cc(C3CC3)[nH]n2)c2cccn2n1` [Example 206], the inhibition in vivo at 50 mg/kg (qd) was 111%.

As to `CC(C)n1cnc(Nc2nc(N3CCC[C@H]3C(=O)NC3CCCN(C)C3)nn3cccc23)c1` (stereo partly drawn) [Example 236, (S)-1-(4-(1-Isopropyl-1H-imidazol-4-ylamino)pyrrolo[1,2-f][1,2,4]triazin-2-yl)-N-((R)-1-methylpiperidin-3-yl)pyrrolidine-2-carboxamide], the inhibition in vivo at 25 mg/kg was 113%.

For the compound `CC(C)n1cnc(Nc2nc(N3C[C@@H](O)C[C@H]3C(=O)Nc3cnccn3)nn3cccc23)c1` [Example 245, (2S,4S)-4-hydroxy-1-(4-(1-isopropyl-1H-imidazol-4-ylamino)pyrrolo[L2-f][1,2,4]triazin-2-yl)-N-(pyrazin-2-yl)pyrrolidine-2-carboxamide], the inhibition in vivo at 50 mg/kg (qd) came out at 112%. On the same count and under the same terms, for `C[C@@]1(C(=O)Nc2cnccn2)C[C@H](O)CN1c1nc(Nc2cc(C3CC3)[nH]n2)c2cccn2n1` [Example 227, (2S,4S)-1-(4-(5-cyclopropyl-1H-pyrazol-3-ylamino)pyrrolo[1,2-f][1,2,4]triazin-2-yl)-4-hydroxy-2-methyl-N-(pyrazin-2-yl)pyrrolidine-2-carboxamide] the value was 115%. Consider `C[C@@]1(C(=O)Nc2cccnc2)CCCN1c1nc(Nc2cc(C3CC3)[nH]n2)c2cccn2n1` [Example 68], for which the inhibition in vivo at 25 mg/kg was found to be 76%.

On to `O=C(Nc1nccs1)[C@@H]1C[C@@H](F)CN1c1nc(Nc2cc(C3CC3)[nH]n2)c2cccn2n1` [Example 198, (2S,4R)-1-(4-(5-cyclopropyl-1H-pyrazol-3-ylamino)pyrrolo[1,2-f][1,2,4]triazin-2-yl)-4-fluoro-N-(thiazol-2-yl)pyrrolidine-2-carboxamide], for which the inhibition in vivo at 25 mg/kg is 124%.

Take `Cc1cc(NC(=O)[C@]2(C)CCCN2c2nc(Nc3cc(C4CC4)[nH]n3)c3cccn3n2)n[nH]1` [Example 135]: the inhibition in vivo at 25 mg/kg worked out at 25%. In the case of `CC1(c2cc(Nc3nc(N4CCC[C@H]4C(=O)N[C@@H]4CCCNC4)nn4cccc34)n[nH]2)CC1` [Example 194, (S)-1-(4-(5-(1-methylcyclopropyl)-1H-pyrazol-3-ylamino)pyrrolo[1,2-f][1,2,4]triazin-2-yl)-N-((R)-piperidin-3-yl)pyrrolidine-2-carboxamide], the inhibition in vivo at 25 mg/kg was determined as 52%. Same read-out and setting: as for `Cc1cc(Nc2nc(N3CCC[C@@]3(C)C(=O)Nc3cccnc3)nn3cccc23)n[nH]1` [Example 85], the figure is 76%.

For the origin of these results see patent publication US8592579B2, “Pyrrolotriazine kinase inhibitors” (Bristol-Myers Squibb Company, priority 2006, dated 2013).
